# Experimental data published in patent US20100298141A1, “SUBSTITUTED PYRIDINE N-OXIDE HERBICIDES” (E. I. DU PONT DE NEMOURS AND COMPANY, priority 2007, published 2010).
# Key:
# Assay in all cases: Test F preemergence test
# [1] = test system: field bindweed; type: in vivo, Convolvulus arvensis; conditions: scale 0 to 100
# Procedure, shortened: (§1)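 Compound in a non-phytotoxic solvent blend with surfactant is applied preemergence to planted seeds or postemergence to sugarcane plants. Plants and controls stay in the greenhouse 14 to 21 days before visual comparison.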
# [2] = test system: prickly sida; type: in vivo, Sida spinosa; conditions: scale 0 to 100
# Procedure, shortened: as §1
# [3] = test system: itchgrass; type: in vivo, Rottboellia cochinchinensis; conditions: scale 0 to 100
# Procedure, shortened: as §1
# [4] = test system: spanishneedles; type: in vivo, Bidens bipinnata; conditions: scale 0 to 100; for Spanishneedles plant response rating: 125 g ai/ha
# Source text: (§2) Seeds of plant species selected from bermudagrass (Cynodon dactylon), Surinam grass (Brachiaria decumbens), large crabgrass (Digitaria sanguinalis), green foxtail (Setaria viridis), goosegrass (Eleusine indica), johnsongrass (Sorghum halepense), kochia (Kochia scoparia), pitted morningglory (Ipomoea lacunosa), purple nutsedge (Cyperus rotundus), common ragweed (Ambrosia elation), mustard (Brassica nigra), guineagrass (Panicum maximum), […] (Paspalum dilatatum), barnyardgrass (Echinochloa crus-galli), southern sandbur (Cenchrus echinatus), common sowthistle (Sonchus oleraceous), prickly […] spinosa), Italian ryegrass (Lolium multiflorum), common purslane (Portulaca oleracea), broadleaf signalgrass (Brachiaria platyphylla), common groundsel (Senecio vulgaris), common chickweed (Stellaria media), Virginia dayflower (Commelina virginica), annual bluegrass (Poa annua), naked crabgrass (Digitaria nuda), […] cochinchinensis), quackgrass (Elytrigia repens), Canada horseweed (Conyza canadensis), field bindweed (Convolvulus arvensis), […] (Bidens bipinnata), common mallow (Malva sylvestris), Russian thistle (Salsola kali), and sugarcane (Saccharum officinarum) were planted and treated preemergence with test chemicals formulated in a non-phytotoxic solvent mixture which included a surfactant. At a different time, sugarcane was treated with postemergence applications of some of the test chemicals formulated in the same manner. Plants were approximately 3- to 4-leaf stage for the postemergence treatments. Treated plants and controls were maintained in a greenhouse for 14 to 21 days, after which time all species were compared to controls and visually evaluated. […] A dash (-) response means no test result.
# [5] = test system: Canada horseweed; type: in vivo, Conyza canadensis; conditions: scale 0 to 100
# Source text: as §2
# [6] = test system: guineagrass; type: in vivo, Panicum maximum; conditions: scale 0 to 100
# Procedure, shortened: as §1
# [7] = test system: dallisgrass; type: in vivo, Paspalum dilatatum; conditions: scale 0 to 100
# Procedure, shortened: as §1
# [8] = test system: common purslane; type: in vivo, Portulaca oleracea; conditions: scale 0 to 100
# Procedure, shortened: as §1
# [9] = test system: common groundsel; type: in vivo, Senecio vulgaris; conditions: scale 0 to 100
# Procedure, shortened: as §1
# [10] = test system: annual bluegrass; type: in vivo, Poa annua; conditions: scale 0 to 100
# Procedure, shortened: as §1
# [11] = test system: johnsongrass; type: in vivo, Sorghum halepense; conditions: scale 0 to 100
# Procedure, shortened: as §1
# [12] = test system: common mallow; type: in vivo, Malva sylvestris; conditions: scale 0 to 100
# Procedure, shortened: as §1
# [13] = test system: green foxtail; type: in vivo, Setaria viridis; conditions: scale 0 to 100
# Procedure, shortened: as §1
# [14] = test system: naked crabgrass; type: in vivo, Digitaria nuda; conditions: scale 0 to 100
# Procedure, shortened: as §1
# [15] = test system: pitted morningglory; type: in vivo, Ipomoea lacunosa; conditions: scale 0 to 100
# Procedure, shortened: as §1
# [16] = test system: Virginia dayflower; type: in vivo, Commelina virginica; conditions: scale 0 to 100
# Procedure, shortened: as §1
structure (smiles),measurement,setting,value
Cn1nc(OC(F)F)c(CS(=O)(=O)c2cccc[n+]2[O-])c1C(F)(F)F [Compound 80],"Plant response rating, Field Bindweed","[1]; 16 g ai/ha, preemergence",0
same,Field Bindweed plant response rating,"[1]; 62 g ai/ha, Preemergence",0
same,Field Bindweed plant response rating,"[1]; 125 g ai/ha, preemergence",0
same,"Plant response rating, Field Bindweed","[1]; Preemergence, 31 g ai/ha",0
same,"Plant response rating, Prickly Sida","[2]; 16 g ai/ha, preemergence",0
same,Prickly Sida plant response rating,"[2]; 62 g ai/ha, Preemergence",0
same,Prickly Sida plant response rating,"[2]; 125 g ai/ha, preemergence",20
same,"Plant response rating, Prickly Sida","[2]; Preemergence, 31 g ai/ha",0
same,"Plant response rating, Itchgrass","[3]; 16 g ai/ha, preemergence",10
same,Itchgrass plant response rating,"[3]; 62 g ai/ha, Preemergence",60
same,Itchgrass plant response rating,"[3]; 125 g ai/ha, preemergence",90
same,"Plant response rating, Itchgrass","[3]; Preemergence, 31 g ai/ha",20
same,"Plant response rating, Spanishneedles","[4]; 16 g ai/ha, preemergence",0
same,Spanishneedles plant response rating,[4]; preemergence,0
same,"Plant response rating, Spanishneedles","[4]; Preemergence, 62 g ai/ha",0
same,"Plant response rating, Spanishneedles","[4]; Preemergence, 31 g ai/ha",0
same,"Plant response rating, Horseweed","[5]; 16 g ai/ha, preemergence",0
same,Horseweed plant response rating,"[5]; 62 g ai/ha, Preemergence",100
same,Horseweed plant response rating,"[5]; 125 g ai/ha, preemergence",100
same,"Plant response rating, Horseweed","[5]; Preemergence, 31 g ai/ha",0
same,"Plant response rating, Guineagrass","[6]; 16 g ai/ha, preemergence",75
same,Guineagrass plant response rating,"[6]; 62 g ai/ha, Preemergence",98
same,Guineagrass plant response rating,"[6]; 125 g ai/ha, preemergence",100
same,"Plant response rating, Guineagrass","[6]; Preemergence, 31 g ai/ha",98
same,"Plant response rating, Dallisgrass","[7]; 16 g ai/ha, preemergence",40
same,Dallisgrass plant response rating,"[7]; 62 g ai/ha, Preemergence",95
same,Dallisgrass plant response rating,"[7]; 125 g ai/ha, preemergence",100
same,"Plant response rating, Dallisgrass","[7]; Preemergence, 31 g ai/ha",80
same,"Plant response rating, Purslane","[8]; 16 g ai/ha, preemergence",0
same,Purslane plant response rating,"[8]; 62 g ai/ha, Preemergence",0
same,Purslane plant response rating,"[8]; 125 g ai/ha, preemergence",0
same,"Plant response rating, Purslane","[8]; Preemergence, 31 g ai/ha",0
same,Groundsel plant response rating,"[9]; 62 g ai/ha, Preemergence",0
same,Groundsel plant response rating,"[9]; 125 g ai/ha, preemergence",50
same,"Plant response rating, Groundsel","[9]; Preemergence, 31 g ai/ha",0
same,"Plant response rating, Bluegrass","[10]; 16 g ai/ha, preemergence",25
same,Bluegrass plant response rating,"[10]; 62 g ai/ha, Preemergence",90
same,Bluegrass plant response rating,"[10]; 125 g ai/ha, preemergence",95
same,"Plant response rating, Bluegrass","[10]; Preemergence, 31 g ai/ha",25
same,"Plant response rating, Johnsongrass","[11]; 16 g ai/ha, preemergence",50
same,Johnsongrass plant response rating,"[11]; 62 g ai/ha, Preemergence",90
same,Johnsongrass plant response rating,"[11]; 125 g ai/ha, preemergence",98
same,"Plant response rating, Johnsongrass","[11]; Preemergence, 31 g ai/ha",75
same,"Plant response rating, Mallow","[12]; 16 g ai/ha, preemergence",0
same,Mallow plant response rating,"[12]; 62 g ai/ha, Preemergence",0
same,Mallow plant response rating,"[12]; 125 g ai/ha, preemergence",65
same,"Plant response rating, Mallow","[12]; Preemergence, 31 g ai/ha",0
same,"Plant response rating, Foxtail, Green","[13]; 16 g ai/ha, preemergence",30
same,"Foxtail, Green plant response rating","[13]; 62 g ai/ha, Preemergence",75
same,"Foxtail, Green plant response rating","[13]; 125 g ai/ha, preemergence",95
same,"Plant response rating, Foxtail, Green","[13]; Preemergence, 31 g ai/ha",75
same,"Plant response rating, Crabgrass, Naked","[14]; 16 g ai/ha, preemergence",0
same,"Crabgrass, Naked plant response rating","[14]; 62 g ai/ha, Preemergence",90
same,"Crabgrass, Naked plant response rating","[14]; 125 g ai/ha, preemergence",100
same,"Plant response rating, Crabgrass, Naked","[14]; Preemergence, 31 g ai/ha",75
CC(Oc1c(C[S+]([O-])c2ccc(Cl)c[n+]2[O-])c(C(F)(F)F)nn1C)C(F)(F)F (stereo not shown) [Compound 87],"Plant response rating, Field Bindweed","[1]; 16 g ai/ha, preemergence",0
same,Field Bindweed plant response rating,"[1]; 125 g ai/ha, preemergence",40
same,"Plant response rating, Field Bindweed","[1]; Preemergence, 62 g ai/ha",20
same,"Plant response rating, Field Bindweed","[1]; Preemergence, 31 g ai/ha",0
same,"Plant response rating, Morningglory","[15]; 16 g ai/ha, preemergence",0
same,Morningglory plant response rating,"[15]; 125 g ai/ha, preemergence",90
same,"Plant response rating, Morningglory","[15]; Preemergence, 62 g ai/ha",35
same,"Plant response rating, Morningglory","[15]; Preemergence, 31 g ai/ha",0
same,"Plant response rating, Prickly Sida","[2]; 16 g ai/ha, preemergence",0
same,Prickly Sida plant response rating,"[2]; 125 g ai/ha, preemergence",100
same,"Plant response rating, Prickly Sida","[2]; Preemergence, 62 g ai/ha",75
same,"Plant response rating, Prickly Sida","[2]; Preemergence, 31 g ai/ha",50
same,"Plant response rating, Itchgrass","[3]; 16 g ai/ha, preemergence",35
same,Itchgrass plant response rating,"[3]; 125 g ai/ha, preemergence",100
same,"Plant response rating, Itchgrass","[3]; Preemergence, 62 g ai/ha",100
same,"Plant response rating, Itchgrass","[3]; Preemergence, 31 g ai/ha",85
same,"Plant response rating, Spanishneedles","[4]; 16 g ai/ha, preemergence",0
same,Spanishneedles plant response rating,[4]; preemergence,100
same,"Plant response rating, Spanishneedles","[4]; Preemergence, 62 g ai/ha",100
same,"Plant response rating, Spanishneedles","[4]; Preemergence, 31 g ai/ha",0
same,"Plant response rating, Guineagrass","[6]; 16 g ai/ha, preemergence",90
same,Guineagrass plant response rating,"[6]; 125 g ai/ha, preemergence",100
same,"Plant response rating, Guineagrass","[6]; Preemergence, 62 g ai/ha",100
same,"Plant response rating, Guineagrass","[6]; Preemergence, 31 g ai/ha",100
same,"Plant response rating, Dallisgrass","[7]; 16 g ai/ha, preemergence",0
same,Dallisgrass plant response rating,"[7]; 125 g ai/ha, preemergence",80
same,"Plant response rating, Dallisgrass","[7]; Preemergence, 62 g ai/ha",60
same,"Plant response rating, Dallisgrass","[7]; Preemergence, 31 g ai/ha",50
same,"Plant response rating, Dayflower","[16]; 16 g ai/ha, preemergence",35
same,Dayflower plant response rating,"[16]; 125 g ai/ha, preemergence",100
same,"Plant response rating, Dayflower","[16]; Preemergence, 62 g ai/ha",100
same,"Plant response rating, Dayflower","[16]; Preemergence, 31 g ai/ha",100
same,"Plant response rating, Purslane","[8]; 16 g ai/ha, preemergence",0
same,Purslane plant response rating,"[8]; 125 g ai/ha, preemergence",100
same,"Plant response rating, Purslane","[8]; Preemergence, 62 g ai/ha",70
same,"Plant response rating, Purslane","[8]; Preemergence, 31 g ai/ha",20
same,"Plant response rating, Groundsel","[9]; 16 g ai/ha, preemergence",0
same,Groundsel plant response rating,"[9]; 125 g ai/ha, preemergence",65
same,"Plant response rating, Groundsel","[9]; Preemergence, 62 g ai/ha",0
same,"Plant response rating, Groundsel","[9]; Preemergence, 31 g ai/ha",0
same,"Plant response rating, Bluegrass","[10]; 16 g ai/ha, preemergence",35
same,Bluegrass plant response rating,"[10]; 125 g ai/ha, preemergence",100
same,"Plant response rating, Bluegrass","[10]; Preemergence, 62 g ai/ha",80
same,"Plant response rating, Bluegrass","[10]; Preemergence, 31 g ai/ha",70
same,"Plant response rating, Johnsongrass","[11]; 16 g ai/ha, preemergence",40
same,Johnsongrass plant response rating,"[11]; 125 g ai/ha, preemergence",100
same,"Plant response rating, Johnsongrass","[11]; Preemergence, 62 g ai/ha",95
same,"Plant response rating, Johnsongrass","[11]; Preemergence, 31 g ai/ha",75
same,"Plant response rating, Mallow","[12]; 16 g ai/ha, preemergence",50
same,Mallow plant response rating,"[12]; 125 g ai/ha, preemergence",100
same,"Plant response rating, Mallow","[12]; Preemergence, 62 g ai/ha",100
same,"Plant response rating, Mallow","[12]; Preemergence, 31 g ai/ha",75
same,"Plant response rating, Foxtail, Green","[13]; 16 g ai/ha, preemergence",35
same,"Foxtail, Green plant response rating","[13]; 125 g ai/ha, preemergence",98
same,"Plant response rating, Foxtail, Green","[13]; Preemergence, 62 g ai/ha",80
same,"Plant response rating, Foxtail, Green","[13]; Preemergence, 31 g ai/ha",65
same,"Plant response rating, Crabgrass, Naked","[14]; 16 g ai/ha, preemergence",95
same,"Crabgrass, Naked plant response rating","[14]; 125 g ai/ha, preemergence",100
same,"Plant response rating, Crabgrass, Naked","[14]; Preemergence, 62 g ai/ha",100
same,"Plant response rating, Crabgrass, Naked","[14]; Preemergence, 31 g ai/ha",100
